We go through eight compounds from US7741464B2, “Compositions and methods of using CRMP-1 and its fragments for treating cancer” (Advpharma Inc., priority 2007, dated 2010).

Where two headings read alike, the source gives them in different places.

Assay [1] concerns transient transfected colorectal cell lines (Caco-2, CC-M1, DLD-1). The assay is described as follows: Chemosensitivity of transient transfectants (cell counting). The assay is classed as cell-based, human. The conditions noted are these: with pNCRMP1 or pNCN3 transient transfected colorectal cell lines; data not shown. As for the experimental part:
(§1) Six human cancer cell lines, including human colon cancer cell lines Caco-2, CC-M1, DLD-1; human prostate cancer cell lines DU145, PC-3; and human breast cancer cell line MCF-7, were tested in an experiment on improvement of chemosensitivity. Two expression plasmids, pNCRMP1 and pNCN3, and the pCI-neo vector (control plasmid), were used for transfection, respectively. The general cultivation conditions and transfection procedures were the same as described in Example 3.
(§2) Treatment of transient transfected cell lines using chemical agent was immediately performed as follows, and quantification of viable cells was performed by counting using hemocytometer after 3-days incubation at 37° C.: • (1) Three types of transient transfected human colorectal cancer cells were treated with 5-fluorouracil; • (2) The transient transfected human prostate cancer cell line DU145 was treated with Adriamycin™ (doxorubicin), cyclophosphamide and etoposide; • (3) The transient transfected human prostate cancer cell line PC3 was treated with cyclophosphamide, etoposide, and paclitaxel; and, • (4) The transient transfected human breast cancer cell line MCF-7 was treated with Adriamycin™ (doxorubicin) and paclitaxel.

Assay [2] has as its system H520 stable transfectants. The assay is described as follows: Chemosensitivity (MTT cytotoxicity) of stable transfectants. The format is cell-based. To be noted: Homo sapiens, read-out: IC50 of chemical agent. The source says: Three human cancer cell lines, including lung cancer cell line H520 and two human prostate cancer cell lines (PC-3 and DU145) were applied for selection of stable transfectants. Four expression plasmids, including pNCRMP1, pNCN1, pNCN3, and pNCN4, and the pCI-neo vector (as control plasmid) were used for transfection, respectively. The general cultivation condition and transfection procedures were the same as described in Example 3. The transfected cells were further cultivated under the same conditions as their parental cell lines and selected with 0.6-1 mg antibiotic G418 per ml (Kao et al., Oncogene 16: 546-554 (1998); Xiaolin et al, Cancer Research 65: 9762-9770 (2005)).
Three agents, including caffeic acid phenethyl ester (CAPE; Sigma, US), Adriamycin™ (doxorubicin) (Pharmacia & Upjohn S.P.A. Milan, Italy), and paclitaxel (Taxol; Bristol-Myers Squibb Co., Wallingford, Conn.), were dissolved in DMSO (dimethyl sulfoxide; Sigma) for preparation of stock solution, respectively. A serial dilution was prepared with DPBS buffer for chemosensitivity tests. The human lung squamous carcinoma stable transfectants H520 were treated with both CAPE and Adriamycin™ (doxorubicin) for four different concentrations, e.g. 0.05, 0.01, 0.002, and 0.0004 mM, while the administering of paclitaxel was performed at different concentrations, e.g. 1000, 200, 40, and 8 nM. Both types of prostate stable transfectants were only treated with paclitaxel for eight concentrations ranging from 0.1 mM to 1.28 nM with 1/5 dilution each step.
MTT (3-(4,5-dimethylthiazol-2-yl)-2,5-diphenyltetrazolium bromide; Sigma, Inc.) assay (Monks et al., J. Natl. Cancer Inst. 83:757-766 (1991); Paull et al, J. Natl. Cancer Inst. 81:1088-1092 (1989)) was applied for studying the cytotoxic effect of indicated agent. The absorbance was measured both at 545 nm and at 690 nm (served as reference) using the 96-well spectrophotometer reader (Emax, Molecular Device Inc., California, US) (Chen et al., Yi Xue Za Zhi (Taipei) 46:7-16 (1990)). The relative growth inhibition was calculated as follows: Relative growth inhibition=100%×(1−(OD545nm (Treated cells)−OD690nm(Treated cells))÷(OD545nm(untreated cells)−OD690nm(untreated cells)))
The 50% inhibition concentration (IC50) was determined after graphical plotting of spectrophotometric measurements and interpolation by EXCEL software.

Assay [3] has as its system MCF-7 transient transfectants. In words: Chemosensitivity of transient transfectants (cell counting). The format is cell-based. The conditions noted are these: Homo sapiens, MCF7, 72 h, read-out: IC50 of chemical agent. The procedure:
as §1, §2

In assay [4] the test system is DU145 transient transfectants. Described as above. The conditions noted are these: read-out: IC50 of chemical agent. The assay is classed as cell-based, human. As for the experimental part:
as §1, §2

The subject of assay [5] is PC-3 transient transfectants. Described as above. The assay is classed as cell-based. The conditions noted are these: Homo sapiens, 72 h. As for the experimental part:
as §1, §2

The next assay has as its system DU145 cells. The assay is described as follows: Antiproliferative effect after transient transfection. The format is cell-based, human. The conditions noted are these: for selectivity on antiproliferative ability: prostate cancer cells (PC-3, DU145) vs human prostate normal cell line PZ-HPV-7. An excerpt: (§3) All cell lines were purchased from Food Industry Research and Development Institute (FIRDI), Hsinshu, Taiwan. They were originated from different tissues or organs, including: • (1) human lung cancer cells: adenocarcinoma A549 (BCRC60074), squamous cell carcinoma H520 (BCRC60124), and large-cell carcinoma H460 (CCRC600373), • (2) human prostate cancer cell: adenocarcinoma PC-3 (CCRC60112) and carcinoma DU145 (CCRC60348) isolated from metastatic brain site; • (3) human colon cancer cells: adenocarcinoma SW 480 (CCRC60249), CC-M1 (BCRC60448), and DLD-1 (CCRC60132); • (4) human breast cancer cells: ductal carcinoma BT-474 (CCRC 60359), MCF-7 (CCRC60436), and ZR-75-1 (CCRC60055); • (5) Chinese hamster lung cell V79-4 (BCRC60183), and • (6) human prostate normal cell PZ-HPV-7 (CCRC60136).
(§4) The cultivation of cell lines was as described as the instruction provided by Food Industry Research and Development Institute (FIRDI), while 10% fetal bovine serum (JRH Biosciences, USA) was supplemented as final concentration, if necessary. The human prostate normal cell line PZ-HPV-7 was maintained in Keratinocyte-SFM medium (Life Technologies, Inc., US).
(§5) Mammalian cells were seeded to 6-well plate (Corning Inc., USA) with a cell density of 2˜8×10^5 and incubated at 37° C. for overnight prior to transfection. Each cell line was respectively transfected with the pCI-neo Mammalian Expression Vector (as control plasmid; Promega, USA) or with the hCRMP-1-related expression plasmid by using Lipofectamine™ Reagent (Invitrogen, #18324-020). A series of expression plasmid containing full-length or partial gene fragment of hCRMP-1, were pNCRMP1, pNCN1, pNCN3, pNCN4, pNCN5, pNCN6, and pNCN7, whose constructions were described in Example 1 and Example 2.
(§6) The nomenclature of transfected cell line was according to the cell line and expression plasmid and characterized as “cell line/expression plasmid.” Quantitation of viable cells after transfection was performed by using hemocytometer after 5-days incubation at 37° C. (R. Ian Freshney: Culture of Animal Cells, A Manual of Basic Technique, Chapter 20, pp. 309-312, WILEY-LISS, Canada (2000)).
(§7) The antiproliferative effect (in percentage) of each cell line transfected with individual expression plasmid was normalized with the same cell line transfected with control plasmid as follows: Antiproliferative effect=100%×(1−(number of cells transfected with expression plasmid÷number of cells transfected with control plasmid))

The subject of the next assay is MCF-7 cells. The description is as above. The assay is classed as cell-based, human. The conditions noted are these: MCF-7, transient transfection, 5-days incubation, normalized to pCI-neo control plasmid.
Text: as §3, §4, §5, §6, §7

The subject of the next assay is PC-3 cells. Described as above. The assay is classed as cell-based, human. The conditions noted are these: PC-3, transient transfection, 5-days incubation, normalized to pCI-neo control plasmid.
Text: as §3, §4, §5, §6, §7

A further assay has as its system CC-M1 cells. The assay is described as above. The assay is classed as cell-based, human. The conditions noted are these: 5-days incubation, normalized to pCI-neo control plasmid.
Text: as §3, §4, §5, §6, §7

For the next assay, the system named is H460 cells. Described as above. The assay is classed as cell-based, human. The conditions noted are these: viable cells counted after 5-days incubation, normalized to pCI-neo control plasmid.
Text: as §3, §4, §5, §6, §7

The test system of assay [6] is poorly differenciated human lung adenocarcinoma cells. The conditions noted are these: cells established from a patient; Shih et al., J. Natl. Cancer Inst. 93(18) (2001); cited from earlier work.
[7] abbreviates: NCI-H520, stable transfectant H520/pCI-neo/1 (control plasmid), MTT.
Setting [8] is: NCI-H520, stable transfectant H520/pNCN1/1, MTT.
Where [9] appears, read: NCI-H520, stable transfectant H520/pNCN3/1, MTT.
Where [10] appears, read: NCI-H520, stable transfectant H520/pNCN4/1, MTT.
Setting [11] is: NCI-H520, stable transfectant H520/pNCRMP1/1, MTT.
The mark [12] stands for this setting: Homo sapiens, DU-145, 72 h, transient transfectant DU145/pCIneo (control plasmid), 3-days incubation.
The mark [13] stands for this setting: Homo sapiens, DU-145, 72 h, transient transfectant DU145/pNCN3, 3-days incubation.
[14] abbreviates: Homo sapiens, DU-145, 72 h, transient transfectant DU145/pNCRMP1, 3-days incubation.

On to `O=c1[nH]cc(F)c(=O)[nH]1` [5-fluorouracil], for which the improvement of chemosensitivity result in assay [1] is listed as “no improvement of chemosensitivity”.
As to `COc1cccc2c1C(=O)c1c(O)c3c(c(O)c1C2=O)C[C@@](O)(C(=O)CO)C[C@@H]3O[C@H]1C[C@H](N)[C@H](O)[C@H](C)O1` [Adriamycin ™ (doxorubicin), doxorubicin], the IC50 was 740 nM in [2] (setting [7]); less than 400 nM in assay [2] (setting [8]); less than 400 nM in assay [2] (setting [9]); 500 nM in assay [2] (setting [10]); less than 400 nM in [2] (setting [11]); 2130 nM in assay [3] (transient transfectant MCF-7/pCIneo (control plasmid), 3-days incubation). Further, the IC50 is 320 nM in assay [3] (transient transfectant MCF-7/pNCN3, 3-days incubation); 100 nM in [3] (transient transfectant MCF-7/pNCRMP1, 3-days incubation); 73 nM in [4] (setting [12]); 60 nM in [4] (setting [13]); 79 nM in assay [4] (setting [14]).
For the compound `O=C(/C=C/c1ccc(O)c(O)c1)OCCc1ccccc1` [CAPE, caffeic acid phenethyl ester], the IC50 in [2] (setting [7]) is greater than 50000 nM; in assay [2] (setting [8]), 23000 nM; in assay [2] (setting [9]), 29000 nM; in assay [2] (setting [10]), 27000 nM; in [2] (setting [11]), 17000 nM.
As for `O=P1(N(CCCl)CCCl)NCCCO1` (centres unmarked) [Cyclophosphamide, cyclophosphamide], the IC50 was greater than 100000 nM in assay [5] (read-out: IC50 of chemical agent, transient transfectant PC-3/pCIneo (control plasmid), 3-days incubation); 55000 nM in assay [5] (read-out: IC50 of chemical agent, transient transfectant PC-3/pNCN3, 3-days incubation); greater than 100000 nM in [5] (read-out: IC50 of chemical agent, transient transfectant PC-3/pNCRMP1, 3-days incubation); greater than 100000 nM in assay [4] (Homo sapiens, DU-145, 72 h); greater than 100000 nM in assay [4] (transient transfectant DU145/pCIneo (control plasmid), 3-days incubation); greater than 100000 nM in assay [4] (transient transfectant DU145/pNCN3, 3-days incubation).
`COc1cc([C@@H]2c3cc4c(cc3[C@@H](O[C@@H]3O[C@@H]5CO[C@@H](C)O[C@H]5[C@H](O)[C@H]3O)[C@H]3COC(=O)[C@H]23)OCO4)cc(OC)c1O` [Etoposide, etoposide]: the IC50 in [5] (transient transfectant PC-3/pCIneo (control plasmid), 3-days incubation, read-out: IC50 of chemical agent) was 64000 nM; in [5] (transient transfectant PC-3/pNCN3, 3-days incubation, read-out: IC50 of chemical agent), greater than 100000 nM; in assay [5] (transient transfectant PC-3/pNCRMP1, 3-days incubation, read-out: IC50 of chemical agent), 33000 nM; in assay [4] (setting [12]), 460 nM; in assay [4] (setting [13]) it was 710 nM; in [4] (setting [14]), 710 nM.
As to “CN3: active fragment of hCRMP-1, 208-480 of SEQ ID NO: 1 (SEQ ID NOS: 17 and 39)”, in the assay on DU145 cells, the “selectivity on antiproliferative ability” value is listed as “around 20%”.
On the same count and under the same terms, for “CN7: active fragment of hCRMP-1, 458-572 of SEQ ID NO: 1 (SEQ ID NOS: 25 and 43)” the value was 28%.
Take “full-length hCRMP-1: human collapsin response mediator protein-1, full-length protein with 572 amino acids (SEQ ID NO: 1)”: the Anti-proliferation effect entry in the assay with MCF-7 cells is reported as “inhibits cancer cell proliferation”; in the assay with PC-3 cells, “inhibits cancer cell proliferation”; with CC-M1 cells, “inhibits cancer cell proliferation”; in the assay on H460 cells, “inhibits cancer cell proliferation”; with H460 cells (listed as full-length CRMP-1) it was “has antiproliferative activity”; with DU145 cells (DU145, transient transfection, 5-days incubation, normalized to pCI-neo control plasmid), “inhibits cancer cell proliferation”. For the same compound, the antiproliferative activity entry in [6] is “no antiproliferative activity”.
